Source: patent US9029553B2, “2-anilino nicotinyl linked 2-amino benzothiazole conjugates and process for the preparation thereof” (Council of Scientific & Industrial Research, priority 2011, dated 2015)

Experiments:
topoisomerase II = test: DNA topoisomerase-II inhibition assay; assay type: biochemical; conditions: 1 μM; etoposide 100 μM
Text: DNA topoisomerases are nuclear enzymes capable of resolving the topology of DNA to allow its replication. So, proper relaxing is very important for successful replication cycle and thus for the cell survival. However, topoisomerases also serve as targets in the anticancer chemotherapy in which cell death serves an important purpose. Moreover, the topoisomerase targeting drugs can either be classified either topo posions, which act by stabilizing enzyme DNA cleavable complexes leading to DNA break or topo catalytic inhibitors, which act by stabilizing enzyme where both DNA strands remain intact and no DNA breaks occur. Importantly, all the topoisomerase inhibitors finally induce apoptosis. In the present study, all the five compounds 4-8 were first subjected to topoisomerase II inhibition assay.

[1] = test system: normal monkey kidney CV-1 cells; test: MTT cytotoxicity in normal cells; assay type: cell-based; conditions: Primates
Protocol: These compounds were also evaluated for their cytotoxic potential in normal cells and for these purpose their IC50 value were also determine in normal monkey kidney CV-1 cells by using MTT method. The ratios of normal to cancer cells IC50 value were ranges from 10-1000 times (Table 5).

A549 = test: SRB percentage growth inhibition (NCI protocol); assay type: cell-based; conditions: Homo sapiens, 48 hrs exposure
Protocol: (§1) 2-Anilino nicotinyl linked 2-amino benzothiazoles conjugates of formula 4-8 have been tested against ten and eleven human cancer cell lines for 10 and 1 μM respectively derived from nine cancer types (leukemia, non-small cell lung cancer, colon cancer, CNS cancer, melanoma, ovarian cancer, renal cancer, prostate cancer and breast cancer) as per NCI protocol. For each compound, percentage of growth inhibition was calculated for individual cell lines at a minimum of two concentrations (1 and 10 μM). A protocol of 48 hrs continuous drug exposure was used, and a sulforhodamine B (SRB) protein assay was used to estimate cell viability or growth. The percentage of growth inhibition compared with the control was calculated in table 1 and table 2.

SK-NS-H = test: SRB percentage growth inhibition (NCI protocol); assay type: cell-based; conditions: Homo sapiens, SK-N-SH, 48 hrs exposure
Protocol: as §1

HEP-2 = test: SRB percentage growth inhibition (NCI protocol); assay type: cell-based; conditions: Homo sapiens, 48 hrs exposure
Protocol: as §1

OVCAR-5 = test: SRB percentage growth inhibition (NCI protocol); assay type: cell-based; conditions: Homo sapiens, 48 hrs exposure
Protocol: as §1

502713 = test: SRB percentage growth inhibition (NCI protocol); assay type: cell-based; conditions: Homo sapiens, 48 hrs exposure
Protocol: as §1

PC-3 = test: SRB percentage growth inhibition (NCI protocol); assay type: cell-based; conditions: Homo sapiens, 48 hrs exposure
Protocol: as §1

DU145 = test: SRB percentage growth inhibition (NCI protocol); assay type: cell-based; conditions: Homo sapiens, DU-145, 48 hrs exposure
Protocol: as §1

IMR-32 = test: SRB percentage growth inhibition (NCI protocol); assay type: cell-based; conditions: Homo sapiens, 48 hrs exposure
Protocol: as §1

IGR-OV-1 = test: SRB percentage growth inhibition (NCI protocol); assay type: cell-based; conditions: Homo sapiens, IGROV-1, 48 hrs exposure
Protocol: as §1

Hela [2] = test: SRB percentage growth inhibition (NCI protocol); assay type: cell-based; conditions: Homo sapiens, 48 hrs exposure
Protocol: as §1

Sw-620 = test: SRB percentage growth inhibition (NCI protocol); assay type: cell-based; conditions: Homo sapiens, 48 hrs exposure
Protocol: as §1

SiHa [3] = test: SRB percentage growth inhibition (NCI protocol); assay type: cell-based; conditions: Homo sapiens, 48 hrs exposure
Protocol: as §1

HCT-15 [4] = test: SRB percentage growth inhibition (NCI protocol); assay type: cell-based; conditions: Homo sapiens, 48 hrs exposure
Protocol: as §1

MCF-7 [5] = test: SRB percentage growth inhibition (NCI protocol); assay type: cell-based; conditions: Homo sapiens, MCF7, 48 hrs exposure
Protocol: as §1

HL-60 cells = test: Flow cytometric analysis of reactive oxygen species (DCFH-DA); assay type: cell-based, human; conditions: 1 μM, 24 h, HL-60, compared to control
Protocol: It was clear that these compounds were cytotoxic and induce apoptosis in HL-60 cells, now we have to found out the early events which were responsible for the induction of apoptosis like reactive oxygen species (ROS) or nitric oxide (NO) generation. Intracellular peroxide (ROS) in the cells was measured by DCFH-DA by using flow cytometry. Cells were incubated with tested compounds at 1 μM for 24 h in HL-60 cells and analyzed by flow cytometry after double staining with DCFH-DA (FIG. 7). Cells were analyzed for fluorescence intensity in FL1 vs. cell count. There was hardly any DCF fluorescence (ROS positive cells) in the untreated HL-60 cells, and this status remained unchanged when cells were incubated for 24 hr with compounds 7 and 8. […] Compounds 4 and 6 also induce the generation of peroxide in HL-60 cells (31 and 16% increase, respectively).

HL-60 = test: MTT inhibition of cell proliferation; assay type: cell-based; conditions: Homo sapiens, 48 h
Text: (§2) In order to determine the mode of action of cell death in cancer cells, first we explored the cytotoxic potential of different structural analogs of benzothiazoles on different human cancer cell lines. […] These compounds have limited or no cytotoxicity to cervical cancer SiHa, HeLa cells, breast cancer MCF-7 cells and colon cancer HCT-15 cells.

Hela [6] = test: MTT inhibition of cell proliferation; assay type: cell-based; conditions: Homo sapiens, 48 h
Text: as §2

SiHa [7] = test: MTT inhibition of cell proliferation; assay type: cell-based; conditions: Homo sapiens, 48 h
Text: as §2

HCT-15 [8] = test: MTT inhibition of cell proliferation; assay type: cell-based; conditions: Homo sapiens, 48 h
Text: as §2

MCF-7 [9] = test: MTT inhibition of cell proliferation; assay type: cell-based; conditions: Homo sapiens, MCF7, 48 h
Text: as §2

[10] = test system: Ehrlich Ascites Carcinoma (EAC); test: In vivo anticancer activity, Ehrlich ascites carcinoma; set-up: species or system Swiss mice; conditions: for No. of deaths / toxicity to animals: EAC mice
Protocol: Model: Ehrlich Ascites Carcinoma (EAC)
Ehrlich ascites carcinoma (EAC) cells were collected from the peritoneal cavity of the swiss mice harbouring 8-10 days old ascitic tumor. 1×10^7 EAC cells were injected intraperitoneally in Swiss mice selected for the experiment on day 0. The next day, animals were randomized and divided into different groups. The treatment groups contained 7 animals each and control group contained 10 animals. Treatment groups were treated with different doses of test substances intraperitoneally from day 1-9. One of the treatment group received 5-fluorouracil (20 mg/kg, i.p) and it served as positive control. The tumor bearing control group was similarly administered normal saline (0.2 ml, i.p.). On day 12, animals were sacrificed and ascitic fluid was collected from peritoneal cavity of each mouse for the evaluation of tumor growth. Percent tumor growth inhibition was calculated based on the total number of tumor cells present in the peritoneal cavity as on day 12 of the experiment using the following formula.

**Q.** Which results are given for O=C(Nc1nc2ccc([N+](=O)[O-])cc2s1)c1cccnc1Nc1ccccc1 [Compound 4, N-3-(6-Nitro-1,3-benzothiazol-2-yl)-2-(phenylamino)-3-pyridinecarboxamide]?
**A.** topoisomerase-II inhibition (DNA relaxation) (topoisomerase II): more potent effect relative to etoposide; IC50 [1]: 70 µM; inhibition at 1 µM (A549; 1 μM): 23%; inhibition at 10 µM (A549; 10 μM): 31%; inhibition at 10 µM (SK-NS-H): 48%; inhibition at 1 µM (HEP-2; 1 μM): 50%; inhibition at 10 µM (HEP-2; 10 μM): 26%; inhibition at 1 µM (OVCAR-5; 1 μM): 29%; inhibition at 10 µM (OVCAR-5; 10 μM): 50%; inhibition at 10 µM 502713: 63%; inhibition at 1 µM (PC-3): 22%; inhibition at 1 µM (DU145; 1 μM): 35%; inhibition at 10 µM (DU145; 10 μM): 52%; inhibition at 1 µM (IMR-32; 1 μM): 35%; inhibition at 10 µM (IMR-32; 10 μM): 45%; inhibition at 1 µM (IGR-OV-1): 29%; inhibition at 1 µM (Hela [2]): 9%; inhibition at 1 µM (Sw-620; 1 μM): 9%; inhibition at 10 µM (Sw-620; 10 μM): 65%; inhibition at 10 µM (SiHa [3]): 53%; inhibition at 1 µM (HCT-15 [4]; 1 μM): 6%; inhibition at 10 µM (HCT-15 [4]; 10 μM): 66%; inhibition at 1 µM (MCF-7 [5]): 44%; increase in DCF positive cell population (ROS) (HL-60 cells): 31%; IC50 (HL-60): 0.58 µM; IC50 (Hela [6]): > 100 µM; IC50 (SiHa [7]): 28 µM; IC50 (HCT-15 [8]): > 100 µM; IC50 (MCF-7 [9]): > 100 µM; Growth Inhibition (%) ([10]; 10 mg/Kg i.p. day 1-9, read day 12): 42.21%; No. of deaths / toxicity to animals ([10]; 10 mg/Kg i.p.): 2; No. of deaths / toxicity to animals ([10]; 10 mg/Kg i.p., listed as Comp 4): 2/7; Growth Inhibition (%) ([10]; 50 mg/Kg i.p. day 1-9, read day 12): Intolerable; No. of deaths / toxicity to animals ([10]; 50 mg/Kg i.p.): toxic; No. of deaths / toxicity to animals ([10]; 50 mg/Kg i.p., listed as Comp 4): 7/7
